Assays:
RPMI-8226 = test: Cytotoxicity against human RPMI8226 cells assessed as growth inhibition at 10 uM after 48 hrs by SRB assay; format: functional; details: RPMI-8226, 48 h, read-out: GI
T47D = test: Cytotoxicity against human T47D cells assessed as growth inhibition at 10 uM after 48 hrs by SRB assay; format: functional; details: read-out: GI
U-251 [1] = test: Cytotoxicity against human U251 cells assessed as cell growth at 10^-7 M after 48 hrs by SRB assay; format: functional; details: U-251, 48 h, read-out: Activity
SK-MEL-28 [2] = test: Cytotoxicity against human SK-MEL-28 cells after 48 hrs by SRB assay; format: functional; details: SK-MEL-28, 48 h
786-0 = test: Cytotoxicity against human 786-0 cells assessed as cell growth at 10^-8 M after 48 hrs by SRB assay; format: functional; details: 786-0, 48 h, read-out: Activity
[3] = Cytotoxicity against human NCI-ADR-RES cells after 48 hrs by SRB assay; format: functional
OVCAR-8 = test: Cytotoxicity against human OVCAR8 cells assessed as cell growth at 10^-6 M after 48 hrs by SRB assay; format: functional; details: OVCAR-8, 48 h, read-out: Activity
NCI-H522 = test: Cytotoxicity against human NCI-H522 cells assessed as cell growth at 10^-7 M after 48 hrs by SRB assay; format: functional; details: NCI-H522, 48 h, read-out: Activity
IGROV-1 [4] = test: Cytotoxicity against human IGROV1 cells assessed as cell growth at 10^-7 M after 48 hrs by SRB assay; format: functional; details: IGROV-1, 48 h, read-out: Activity
[5] = Cytotoxicity against human UO31 cells after 48 hrs by SRB assay; format: functional; details: UO-31, 48 h
SN12C = test: Cytotoxicity against human SN12C cells assessed as cell growth at 10^-7 M after 48 hrs by SRB assay; format: functional; details: read-out: Activity
MDA-MB-468 [6] = test: Cytotoxicity against human MDA-MB-468 cells assessed as cell growth at 10^-7 M after 48 hrs by SRB assay; format: functional; details: MDA-MB-468, 48 h, read-out: Activity
SF-295 = test: Cytotoxicity against human SF295 cells assessed as cell growth at 10^-7 M after 48 hrs by SRB assay; format: functional; details: SF-295, 48 h, read-out: Activity
UACC-62 = test: Cytotoxicity against human UACC62 cells assessed as cell growth at 10^-8 M after 48 hrs by SRB assay; format: functional; details: UACC-62, 48 h, read-out: Activity
[7] = Cytotoxicity against human UO31 cells assessed as cell growth at 10^-6 M after 48 hrs by SRB assay; format: functional; details: UO-31, 48 h, read-out: Activity
HCT-15 = test: Cytotoxicity against human HCT15 cells assessed as cell growth at 10^-4 M after 48 hrs by SRB assay; format: functional; details: HCT-15, 48 h, read-out: Activity
SK-MEL-28 [8] = test: Cytotoxicity against human SK-MEL-28 cells assessed as cell growth at 10^-7 M after 48 hrs by SRB assay; format: functional; details: SK-MEL-28, 48 h, read-out: Activity
TK-10 = test: Cytotoxicity against human TK10 cells assessed as cell growth at 10^-6 M after 48 hrs by SRB assay; format: functional; details: TK-10, 48 h, read-out: Activity
SR = test: Cytotoxicity against human SR cells after 48 hrs by SRB assay; format: functional
NCI-H460 [9] = test: Cytotoxicity against human NCI-H460 cells assessed as cell growth at 10^-4 M after 48 hrs by SRB assay; format: functional; details: NCI-H460, 48 h, read-out: Activity
K562 = test: Cytotoxicity against human K562 cells after 48 hrs by SRB assay; format: functional; details: K562, 48 h
SK-MEL-5 [10] = test: Cytotoxicity against human SK-MEL-5 cells assessed as cell growth at 10^-8 M after 48 hrs by SRB assay; format: functional; details: SK-MEL-5, 48 h, read-out: Activity
[11] = Cytotoxicity against human OVCAR5 cells assessed as cell growth at 10^-6 M after 48 hrs by SRB assay; format: functional; details: OVCAR-5, 48 h, read-out: Activity
HT-29 = test: Cytotoxicity against human HT-29 cells after 48 hrs by SRB assay; format: functional; details: HT-29, 48 h
MDA-MB-468 [12] = test: Cytotoxicity against human MDA-MB-468 cells assessed as cell growth at 10^-8 M after 48 hrs by SRB assay; format: functional; details: MDA-MB-468, 48 h, read-out: Activity
NCI-H460 [13] = test: Cytotoxicity against human NCI-H460 cells after 48 hrs by SRB assay; format: functional; details: NCI-H460, 48 h
SK-MEL-5 [14] = test: Cytotoxicity against human SK-MEL-5 cells assessed as cell growth at 10^-4 M after 48 hrs by SRB assay; format: functional; details: SK-MEL-5, 48 h, read-out: Activity
U-251 [15] = test: Cytotoxicity against human U251 cells after 48 hrs by SRB assay; format: functional; details: U-251, 48 h
CCRF-CEM = test: Cytotoxicity against human CCRF-CEM cells assessed as cell growth at 10^-4 M after 48 hrs by SRB assay; format: functional; details: read-out: Activity
OVCAR-3 = test: Cytotoxicity against human OVCAR3 cells assessed as cell growth at 10^-4 M after 48 hrs by SRB assay; format: functional; details: OVCAR-3, 48 h, read-out: Activity
SK-MEL-2 = test: Cytotoxicity against human SK-MEL-2 cells after 48 hrs by SRB assay; format: functional; details: SK-MEL-2, 48 h
IGROV-1 [16] = test: Cytotoxicity against human IGROV1 cells assessed as cell growth at 10^-8 M after 48 hrs by SRB assay; format: functional; details: IGROV-1, 48 h, read-out: Activity
[17] = Cytotoxicity against human OVCAR5 cells assessed as cell growth at 10^-8 M after 48 hrs by SRB assay; format: functional; details: OVCAR-5, 48 h, read-out: Activity
SF-539 = test: Cytotoxicity against human SF539 cells assessed as cell growth at 10^-7 M after 48 hrs by SRB assay; format: functional; details: SF-539, 48 h, read-out: Activity
SNB-75 = test: Cytotoxicity against human SNB75 cells after 48 hrs by SRB assay; format: functional, cell-based; details: SNB-75, 48 h

C=CCn1c(C)nc2ccc(Nc3nc(Nc4ncccn4)nc4ccccc34)cc21
inhibition of growth at 10 µM (RPMI-8226): 30% | inhibition of growth at 10 µM (T47D): 40%

C=CCn1c(C)nc2ccc(Nc3nc(Nc4ccc5nc(C)n(CC=C)c5c4)c4ccccc4n3)cc21
growth at 0.1 µM (U-251 [1]): 94% | GI50 (SK-MEL-28 [2]): 1840 nM | TGI (SK-MEL-28 [2]): 3280 nM | growth at 0.01 µM (786-0): 98% | GI50 [3]: 2220 nM | LC50 [3]: > 100000 nM | TGI [3]: 6070 nM | growth at 1 µM (OVCAR-8): 80% | growth at 0.1 µM (NCI-H522): 91% | growth at 0.1 µM (IGROV-1 [4]): 101% | GI50 [5]: 1360 nM | TGI [5]: 2880 nM | growth at 0.1 µM (SN12C): 94% | growth at 0.1 µM (MDA-MB-468 [6]): 92% | growth at 0.1 µM (SF-295): 98% | growth at 0.01 µM (UACC-62): 96% | growth at 1 µM [7]: 71% | growth at 100 µM (HCT-15): -15% | growth at 0.1 µM (SK-MEL-28 [8]): 95% | growth at 1 µM (TK-10): 116% | GI50 (SR): 1520 nM | LC50 (SR): > 100000 nM | TGI (SR): 3980 nM | growth at 100 µM (NCI-H460 [9]): -28% | GI50 (K562): 1420 nM | LC50 (concentration killing 50% of cells) (K562): > 100000 nM | growth at 0.01 µM (SK-MEL-5 [10]): 94% | growth at 1 µM [11]: 94% | GI50 (HT-29): 1850 nM | TGI (HT-29): 3390 nM | growth at 0.01 µM (MDA-MB-468 [12]): 93% | GI50 (NCI-H460 [13]): 1890 nM | TGI (NCI-H460 [13]): 3700 nM | growth at 100 µM (SK-MEL-5 [14]): -24% | GI50 (U-251 [15]): 1620 nM | TGI (U-251 [15]): 2970 nM | growth at 100 µM (CCRF-CEM): 2% | growth at 100 µM (OVCAR-3): -48% | GI50 (SK-MEL-2): 1960 nM | TGI (SK-MEL-2): 3540 nM | growth at 0.01 µM (IGROV-1 [16]): 100% | growth at 0.01 µM [17]: 95% | growth at 0.1 µM (SF-539): 94%

C=CCn1c(C)nc2cc(Nc3nc(Nc4ccc5nc(C)n(CC=C)c5c4)c4ccccc4n3)ccc21
growth at 0.1 µM (U-251 [1]): 95% | GI50 (SK-MEL-28 [2]): 2020 nM | TGI (SK-MEL-28 [2]): 3860 nM | growth at 0.01 µM (786-0): 99% | GI50 [3]: 1840 nM | LC50 [3]: > 100000 nM | TGI [3]: 4430 nM | growth at 1 µM (OVCAR-8): -11% | growth at 0.1 µM (NCI-H522): 90% | growth at 0.1 µM (IGROV-1 [4]): 106% | GI50 [5]: 1340 nM | LC50 (concentration causing 50% net cell kill) [5]: 5170 nM | TGI [5]: 2630 nM | growth at 0.1 µM (SN12C): 92% | growth at 0.1 µM (MDA-MB-468 [6]): 89% | growth at 0.1 µM (SF-295): 93% | growth at 0.01 µM (UACC-62): 97% | growth at 1 µM [7]: 72% | growth at 100 µM (HCT-15): 2% | growth at 0.1 µM (SK-MEL-28 [8]): 106% | GI50 (SNB-75): 375 nM | LC50 (concentration killing 50% of cells) (SNB-75): 5310 nM | TGI (SNB-75): 1560 nM | growth at 1 µM (TK-10): 30% | GI50 (SR): 222 nM | LC50 (SR): > 100000 nM | growth at 100 µM (NCI-H460 [9]): 1% | GI50 (K562): 218 nM | growth at 0.01 µM (SK-MEL-5 [10]): 100% | growth at 1 µM [11]: 20% | GI50 (HT-29): 190 nM | LC50 (concentration killing 50% of cells) (HT-29): 100000 nM | TGI (HT-29): 349 nM | growth at 0.01 µM (MDA-MB-468 [12]): 106% | GI50 (NCI-H460 [13]): 220 nM | growth at 100 µM (SK-MEL-5 [14]): -37% | GI50 (U-251 [15]): 177 nM | TGI (U-251 [15]): 331 nM | growth at 100 µM (CCRF-CEM): -19% | GI50 (SK-MEL-2): 1440 nM | TGI (SK-MEL-2): 3080 nM | growth at 0.01 µM (IGROV-1 [16]): 103% | growth at 0.01 µM [17]: 93% | growth at 0.1 µM (SF-539): 101%
